In patent publication US20250067753A1, “Protein array-based in vitro transglutaminase assay platform for epitope mapping and immunogen design” (priority 2021, published 2025):

Legend:
[1] = tested on: transglutaminase; details: as amine acceptor; Parameswaran, Velasco et al. 1990; cited from earlier work
[2] = target: T1, guinea pig liver tissue transglutaminase (UniProt P08587); assay: Onchip in vitro TG2 assay (dansyl-cadaverine incorporation on peptide microchip); assay type: biochemical; details: 100 μg/ml TG2, 3 mM dansyl-cadaverine, 5 mM Calcium Chloride, 37 degree, 30 minutes; anti-dansyl antibody/Alexa Fluor 594 readout
T1 construct: guinea pig liver tissue transglutaminase (Sigma); purchased Sigma; host or cells: guinea pig liver (as named)
T1 sequence (P08587 1-690): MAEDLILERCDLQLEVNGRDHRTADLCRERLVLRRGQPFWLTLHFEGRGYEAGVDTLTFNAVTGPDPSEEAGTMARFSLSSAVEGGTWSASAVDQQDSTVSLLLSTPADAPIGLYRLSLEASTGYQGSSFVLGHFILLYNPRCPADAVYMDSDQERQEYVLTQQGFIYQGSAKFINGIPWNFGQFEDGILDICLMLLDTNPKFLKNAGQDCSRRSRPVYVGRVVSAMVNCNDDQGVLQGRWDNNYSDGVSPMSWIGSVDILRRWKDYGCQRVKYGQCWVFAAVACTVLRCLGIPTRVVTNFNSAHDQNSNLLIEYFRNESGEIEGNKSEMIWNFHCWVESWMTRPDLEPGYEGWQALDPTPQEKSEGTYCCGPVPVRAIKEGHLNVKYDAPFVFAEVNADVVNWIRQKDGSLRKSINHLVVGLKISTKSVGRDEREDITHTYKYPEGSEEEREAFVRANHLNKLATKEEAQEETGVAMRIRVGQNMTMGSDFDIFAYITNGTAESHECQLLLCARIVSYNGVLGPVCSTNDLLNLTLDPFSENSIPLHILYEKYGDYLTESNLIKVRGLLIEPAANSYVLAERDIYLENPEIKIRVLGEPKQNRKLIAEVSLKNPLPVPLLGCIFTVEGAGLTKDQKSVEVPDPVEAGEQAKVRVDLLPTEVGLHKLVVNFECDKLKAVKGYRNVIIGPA
Procedure: To identify the glutamine residues that can be modified by tissue transglutaminase on the peptide microchip, the synthesized peptide microchip was incubated with 100 μg/ml guinea pig liver tissue transglutaminase (Sigma) and 3 mM dansyl-cadaverine (Sigma) in 1 ml of TBS containing 5 mM Calcium Chloride and 1 mM DTT at 37 degree for 30 minutes. Afterwards, the peptide chip was washed at least 3 times with TBS. After washing off tissue transglutaminase and dansyl-cadaverine molecules […] the synthesized peptides, the dansyl-cadaverine conjugated on the chip was tracked by rabbit anti-dansyl antibody (Invitrogen) followed by Alexa Fluor 594-labeled anti-rabbit secondary antibody (Invitrogen). Fluorescent microchip figures were quantified and analyzed with ArrayPro32. Original array figures and data are available upon request.
To characterize the glutamine-bearing TG2 modification motifs on these synthesized peptides, dansyl-cadaverine, a well-established amine donor in transglutaminase reaction, was covalently conjugated to the glutamine residues on the peptide chip by purified TG2 with the help of calcium (FIG. 1A). […] In this way the level of dansyl-cadaverine incorporation on a certain peptide was measured by the fluorescent intensity. […]

For QQIV, the “competitive inhibitor for the transglutaminase reaction” value [1] is given as “effective competitive inhibitor” and the “fluorescent intensity (level of dansyl-cadaverine incorporation)” value [2] is given as ~5000.
